This is an account of results in US12303524B2, “Compositions comprising S-adenosylmethionine and a gallic acid ester” (MSI-195 HOLDINGS, LLC, priority 2012, dated 2025).

In data set [1] the test system is Caco-2 cell monolayers. Description: Permeability of SAMe across Caco-2 cell monolayers with propyl gallate (Example 3). The following applies: for apparent permeability coefficient Papp, apical to basolateral / apparent permeability coefficient Papp, basolateral to apical: SAMe salt alone. As for the experimental part:
The Caco-2 cell line is derived from a human colorectal carcinoma and is widely used for in vitro cell culture models for the study of gastrointestinal drug absorption (Stewart, B., (1995) Pharm. Res. 12:693). In these models, pure cell lines are grown on a semi-permeable membrane. Drug formulations are placed on the apical or basolateral side of the cell monolayer and transport is determined via measurement of drug concentrations on the other side of the membrane.
The Caco-2 cell line utilized here was from the American Type Culture Collection (ATCC). Caco-2 cells are grown in Dulbecco's modified Eagle's medium (DMEM, Gibco) supplemented with 20% FBS (fetal bovine serum, Gibco), 100 uM non-essential amino acids (NEAA, Gibco) and 2 mM L-glutamine (Gibco). A Beckton Dickinson BIOCOAT® HTS Caco-2 Assay System Kit was used resulting in 6.6×10^5 cells/cm^2 seeding density (BIOCOAT is a registered trademark of Collaborative Biomedical Products, Inc., Bedford, Massachusetts, USA). The cells used in transport studies were grown for 3 days before the experiments. The culturing conditions were 37° C. in an atmosphere of 5% CO2 and 100% humidity.
A 2 mM aqueous solution of SAMe disulfate tosylate was added on the apical or basolateral side according to the manufacturer's procedure for the Caco-2 kit.
The permeability (Papp) of SAMe is calculated using the following formula: […]
Where dQ/dt is the rate of permeation, Co is the initial concentration of test agent, and A is the area of the monolayer.

A short description of data set [2]: PAMPA permeability of SAMe with and without propyl gallate (Example 4). It is filed as in vitro ADME. The following applies: for Average Effective Permeability: SAMe 2 mM, 5 hr. How it is done: Using a PAMPA (parallel artificial membrane permeability assay) model, the permeability of SAMe was measured in the presence and absence of propyl gallate.
PAMPA methods were used to determine the permeability of substances from a donor compartment, through a lipid-infused artificial membrane into an acceptor compartment. A multi-well microtitre plate was used for the donor and a membrane/acceptor compartment is placed on top. At the beginning of the test, SAMe disulfate tosylate (with or without different concentrations of propyl gallate as indicated in Table 2 below) was added to the donor compartment, and the acceptor compartment remained drug-free. After an incubation period, the compartments were separated and the amount of SAMe was measured in each compartment. Mass balance allows calculation of SAMe that remains in the membrane.
(The PAMPA barrier holds no transporters, so it reflects passive diffusion.)

The nature of data set [3]: Beagle pharmacokinetics of SAMe tablets with various doses of propyl gallate (Example 6). To be noted: for AUC(0-inf.) ± SD / AUC(0-t) / Cmax average of individuals / T1/2 ± SD / Tmax ± SD: oral, fasted beagles. As for the experimental part:
Tablets comprising SAMe and various amounts of propyl gallate were generated by mixing S-adenosyl-L-methionine disulfate tosylate granules (equivalent to 400 mg of SAMe ion) with the various amounts of propyl gallate listed in Table 4 below. Each mixture was pressed into a tablet and coated followed by dissolution profiling and in vivo pharmacokinetic analysis using beagle dogs.
For in vivo studies, fasted male beagle dogs (7-10 kg) were used as described above. Each group (6 dogs for SAMe/propyl gallate and 6 dogs for the SAMe control lacking propyl gallate) were dosed with a single orally administered enteric coated tablet, under fasted conditions, followed by 5 mL of purified water orally with a syringe to facilitate swallowing. Pharmacokinetic blood samples (2 mL each) for SAMe analysis were collected from the jugular vein using the following time points: pre-dose, 20 and 40 minutes, 1, 1.5, 2, 3, 4, 6, and 8 hours after treatment. The venipuncture blood samples were collected into tubes containing the anticoagulant K2-EDTA, and stored on wet ice pending processing. Following collection, samples were centrifuged (at 4° C.) to separate the plasma fraction from the blood cells. The resulting plasma fraction was recovered and stored frozen (at −80° C.) using polypropylene tubes pending bioanalytical analysis.
The concentration of SAMe in dog plasma was determined using the well established LC/MS/MS method. This method employs stable-isotope dilution liquid chromatography-electrospray […] tandem mass spectrometry (LC-ESI-MS/MS) to determine SAMe and SAH in plasma. The analysis used to calculate the main pharmacokinetic parameters (Cmax, Tmax and AUC) was conducted using GraphPad Prism® 5 software.

The conditions of data set [4]: background statement; cited from earlier work.
Data set [5] can be described thus: Plasma SAMe in beagles after tablets of SAMe co-formulated with alkyl gallates (Example 1). It is filed as in vivo, Beagle dogs. The following applies: single enteric coated tablet, 400 mg SAMe ion co-formulated with 25 mg gallic acid ester, fasted male beagles, FIG. 1. How it is done:
Tablets comprising SAMe and various alkyl gallates of different chemical structure were generated by mixing SAMe with either methyl gallate, ethyl gallate, butyl gallate, isobutyl gallate, isoamyl gallate or octyl gallate (see structures below). Tablets were then administered to Beagle dogs and blood samples were withdrawn over time. Analysis of concentrations of SAMe in plasma was used to compare the effects of these gallic acid esters on the uptake of orally administered SAMe in the blood.
Tablets were generated by mixing 400 mg SAMe ion (from SAMe disulfate tosylate) with 25 mg gallic acid ester along with excipients (microcrystalline cellulose, sodium starch glycolate, silicon dioxide, and magnesium stearate) to make up the ˜1025 mg tablet. A commercial seal coat and then a commercial enteric coat was applied to the tablets prior to dissolution testing. Detailed dissolution profiling was performed according to USP standards at either pH 6.8 or 6.0 on each set of tablets to ensure that adequate dissolution was achieved prior to in vivo pharmacokinetic analysis.
The study protocol was approved by the institution's Animal Care Committee, and all animals were cared for according to regulations proposed by Agriculture Canada and the USDA.
Ten different formulations were tested in the present study. 400 mg SAMe co-formulated with 25 mg propyl gallate was compared to: SAMe control tablets (i.e., with no propyl gallate); SAMe tablets co-administered with separate 25 mg propyl gallate tablets; a commercially available SAMe product (400 mg); or 400 mg SAMe with 25 mg of either methyl gallate, ethyl gallate, butyl gallate, isobutyl gallate, isoamyl gallate or octyl gallate.

The nature of data set [6]: Plasma SAMe in beagles after capsules of SAMe with gallate-related molecules (Example 2). To be noted: single capsule, 100 mg SAMe ion with 100 mg agent, versus BHT, propyl paraben and gallic acid, FIGS. 2A and 2B. It is filed as in vivo, Beagle dogs. As for the experimental part:
BHT, propyl paraben and propyl gallate are food-grade antioxidants which have often been used in combination. […] The capsules also contained additional excipients (Microcrystalline cellulose, Sodium Starch Glycolate, Colloidal Silicon Dioxide, and Magnesium Stearate). Capsules were manually filled and in some embodiments, a layer of commercial seal coat was applied to the capsules using a fluid bed coater. Beagle dogs were administered a single orally delivered dose as described above.

Setting [7] is: control tablet 400 mg SAMe, 0 mg Propyl Gallate.
Setting [8] is: tablet 400 mg SAMe, 6.25 mg Propyl Gallate.
[9] abbreviates: tablet 400 mg SAMe, 25 mg Propyl Gallate.
[10] abbreviates: tablet 400 mg SAMe, 100 mg Propyl Gallate.

A value given as a limit tells only on which side of the number the result lay.

Turning to `C[S+](CC[C@H](N)C(=O)[O-])C[C@H]1O[C@@H](n2cnc3c(N)ncnc32)[C@H](O)[C@@H]1O.O=S(=O)(O)CCCCS(=O)(=O)O` (stereo partly drawn) [SAMe 1,4 butanedisulfonate], in data set [1], the “apparent permeability coefficient Papp, apical to basolateral” value came out at 5e-07 cm/s and the “apparent permeability coefficient Papp, basolateral to apical” value is 6e-07 cm/s.
For the molecule `C[S+](CC[C@H](N)C(=O)[O-])C[C@H]1O[C@@H](n2cnc3c(N)ncnc32)[C@H](O)[C@@H]1O` (stereo partly drawn) [SAMe, S-adenosyl-L-methionine], in data set [2], the “transport of SAMe across the PAMPA membrane” value is “essentially no transport”. The “Average Effective Permeability” value in data set [2] (Propyl Gallate 0 mM) was 4.2e-07 cm/s. In addition, the “Average Effective Permeability” value in data set [2] (Propyl Gallate 0.2 mM) was 2e-07 cm/s. Further, the “Average Effective Permeability” value in data set [2] (Propyl Gallate 2 mM) was 4.8e-07 cm/s. In data set [1] (Caco-2), the “Average Permeability Coefficient Apical→Basolateral” value stood at 1.6e-06 cm/s and the “Average Permeability Coefficient Basolateral→Apical” value amounted to 1.7e-06 cm/s. In data set [3] (setting [7]), the “AUC(0-inf.) ± SD” value is 15,186 ± 6,831 hr*ng/mL, the “AUC(0-t)” value is on record as 14,756 hr*ng/mL, the “Cmax average of individuals” value is 6731 ng/mL and the “T1/2 ± SD” value stood at 1.4 ± 0.4 h. The “Tmax ± SD” value in data set [3] (setting [7]) is 1.8 ± 0.7 h. Further, in data set [3] (setting [8]), the “AUC(0-inf.) ± SD” value is recorded as 21,734 ± 9848 hr*ng/mL, the “AUC(0-t)” value was 21,395 hr*ng/mL, the “Cmax average of individuals” value is reported as 11,269 ng/mL and the “T1/2 ± SD” value worked out at 1.4 ± 0.5 h. The “Tmax ± SD” value in data set [3] (setting [8]) came out at 1.4 ± 0.8 h. Moreover, in data set [3] (setting [9]), the “AUC(0-inf.) ± SD” value is recorded as 25,159 ± 13,033 hr*ng/mL, the “AUC(0-t)” value is 24,847 hr*ng/mL, the “Cmax average of individuals” value is reported as 15,333 ng/mL and the “T1/2 ± SD” value is 1.5 ± 0.4 h. In addition, the “Tmax ± SD” value in data set [3] (setting [9]) stood at 1.2 ± 0.5 h. In data set [3] (setting [10]), the “AUC(0-inf.) ± SD” value is reported as 34,305 ± 18,484 hr*ng/mL, the “AUC(0-t)” value is recorded as 34,078 hr*ng/mL, the “Cmax average of individuals” value is reported as 18,700 ng/mL and the “T1/2 ± SD” value turned out to be 1.0 ± 0.2 h. In data set [3] (setting [10]), the “Tmax ± SD” value came to 1.6 ± 0.7 h. Further, in data set [4], the “uptake of exogenous SAMe” value is less than 5%.
As to `CCCCOC(=O)c1cc(O)c(O)c(O)c1` [butyl gallate], the “maximum SAMe plasma concentration (Cmax), uptake into the plasma” value in data set [5] is recorded as “did not result in pharmacokinetics even close to that of SAMe-propyl gallate formulations”.
Same read-out and setting: the value for `CCOC(=O)c1cc(O)c(O)c(O)c1` [ethyl gallate] was “superior uptake into the plasma”; that for `CC(C)CCOC(=O)c1cc(O)c(O)c(O)c1` [isoamyl gallate] was “superior uptake into the plasma”; that for `CCCCCCCCOC(=O)c1cc(O)c(O)c(O)c1` [octyl gallate] was “superior uptake into the plasma”.
As to `CCCOC(=O)c1cc(O)c(O)c(O)c1` [propyl gallate], in data set [6], the “plasma SAMe Cmax and AUC, SAMe uptake into the blood” value is “superior and surprising ability of propyl gallate to increase SAMe uptake into the blood”. Further, the “effect of propyl gallate on SAMe transport across the PAMPA membrane” value in data set [2] (propyl gallate at 2.0 mM) is reported as “no effect on SAMe transport”. Besides, the “relationship of propyl gallate dose with SAMe uptake in vivo” value in data set [3] (dog, in vivo) was “dose-response relationship with SAMe uptake in vivo”. Further, the “maximum SAMe plasma concentration (Cmax), uptake into the plasma” value in data set [5] was “superior uptake into the plasma”.
As to “S-adenosyl-L-methionine disulfate tosylate [SAMe disulfate tosylate]”, in data set [1], the “apparent permeability coefficient Papp, apical to basolateral” value was 4.1e-07 cm/s and the “apparent permeability coefficient Papp, basolateral to apical” value amounted to 5e-07 cm/s.
